Laboratory results published in patent US20240228607A9, “METHODS FOR TREATING HIGH RISK MYELODYSPLASTIC SYNDROMES” (Northwestern University, priority 2022, published 2024).
Entries after “also recorded” stand apart in the source; their conditions may differ.

Tests used:
[1] = system: high risk MDS patient bone marrow derived CD34+ cells; test: Colony-forming unit (CFU) assay, high risk MDS patient bone marrow CD34+ cells; assay type: cell-based; conditions: CD34+ cells from high risk MDS patients, 50 μg/mL, day 14, vs human IgG
Experimental: (§1) (A) Cultured MDS-derived cell line (MDSL) cells were treated with tocilizumab or IgG for 1 hour at the indicated concentration. Cells were then challenged with human recombinant IL-6 (10 ng/mL) for 15 min followed by a western blot assay of p-STAT3. Actin was used as a loading control. (B) 1×10^4/well MDSL cells were seeded in a 96-well plate on day 0 in MDSL culture medium with 50 μg/mL tocilizumab or 50 μg/mL human IgG control. Relative cell number was assessed with CCK-8 reagent at the indicated time points. (C) 1×10^6 MDSL cells were transplanted into sub-lethally irradiated NSG recipient mice. 10 days after transplantation, mice were subjected to weekly treatment with tocilizumab (TCZ) or human IgG (8 mg/kg) by intraperitoneal administration. Engraftment was evaluated 60 days post transplantation via flow cytometry assays of hCD45+ mononuclear cells in the peripheral blood. N=5 in each group, data are presented as Mean±SD. (D) Quantification of the percentage of hCD45+ cells in C. […]
(§2) For the CFU assay, CD34+ cells were thawed in a 37° C. water bath. […] Cell viability was assessed with trypan blue staining and counted with Bio-Rad TC20 cell counter. […] 14 days after seeding, the CFU assay was ready for evaluation. Colonies were counted under an inverted microscope (EVOS M5000, Thermo Fisher), and the colonies were identified by two independent individuals.

MDSL cells [2] = test: Xenograft of MDSL cells in NSG mice; assay type: in vivo, mouse; conditions: 8 mg/kg weekly intraperitoneal; for spleen weight: NSG mice transplanted with MDSL cells
Experimental: (§3) (A) Cultured MDS-derived cell line (MDSL) cells were treated with tocilizumab or IgG for 1 hour at the indicated concentration. Cells were then challenged with human recombinant IL-6 (10 ng/mL) for 15 min followed by a western blot assay of p-STAT3. Actin was used as a loading control. (B) 1×10^4/well MDSL cells were seeded in a 96-well plate on day 0 in MDSL culture medium with 50 μg/mL tocilizumab or 50 μg/mL human IgG control. Relative cell number was assessed with CCK-8 reagent at the indicated time points. (C) 1×10^6 MDSL cells were transplanted into sub-lethally irradiated NSG recipient mice. 10 days after transplantation, mice were subjected to weekly treatment with tocilizumab (TCZ) or human IgG (8 mg/kg) by intraperitoneal administration. Engraftment was evaluated 60 days post transplantation via flow cytometry assays of hCD45+ mononuclear cells in the peripheral blood. N=5 in each group, data are presented as Mean±SD. (D) Quantification of the percentage of hCD45+ cells in C. (E-F) Colony-forming unit (CFU) assays in normal (E) and high risk MDS patient (F) bone marrow derived CD34+ cells. 1×10^3 normal (E) or 2×10^3 patient CD34+ cells (F) were seeded in MethoCult medium supplemented with human IgG or tocilizumab (50 μg/mL) on day 0. The number of colonies was accessed on day 14. Triplicate assay colonies were independently identified by two individuals. Data are presented as Mean±SD. E, G, M, GM, and GEMM represent BFU/CFU-E, CFU-G, CFU-M, CFU-GM, and CFU-GEMM, respectively, in both E and F.
NOD/SCID-IL2Rg mice (NSG) mice were purchased from the Jackson Laboratory (Stock #005557). 1×10^6 of MDS-derived cell line (MDSL) cells were retro-orbitally injected into 12-week-old sub-lethally irradiated (250 rad) female NSG mice. Ten days after transplantation, human IgG isotype control (BE0297, InVivoMab) or tocilizumab (Selleck) were administered at 8 mg/kg weekly via intraperitoneal injection. To evaluate the engraftment, peripheral blood was collected from tail vein on day 60. […]

p-STAT3 = test: Western blot of p-STAT3 in MDSL cells challenged with human recombinant IL-6; assay type: cell-based; conditions: 1 hour treatment, then human recombinant IL-6 10 ng/mL for 15 min, vs IgG
Experimental: as §3, with “Data are presented as Mean±SD. E, G, M, GM, and GEMM represent BFU/CFU-E, CFU-G, CFU-M, CFU-GM, and CFU-GEMM, respectively, in both E and F.” left out

[3] = system: normal bone marrow CD34+ cells; test: Colony-forming unit (CFU) assay, normal bone marrow CD34+ cells; assay type: cell-based; conditions: 50 μg/mL, day 14, vs human IgG
Experimental: as §1, §2

MDSL cells [4] = test: Cell death in MDSL cells; assay type: cell-based, human
MDSL cells [5] = test: MDSL cell proliferation (CCK-8); assay type: cell-based; conditions: 50 μg/mL, vs human IgG control
Experimental: as §3, with “Data are presented as Mean±SD. E, G, M, GM, and GEMM represent BFU/CFU-E, CFU-G, CFU-M, CFU-GM, and CFU-GEMM, respectively, in both E and F.” left out

[6] = transfusion-dependent patients, low or intermediate-1-risk MDS, vs placebo; cited from earlier work

tocilizumab
colony numbers / clonogenicity [1]: markedly reduced; also recorded: reduces cell proliferation and colony formation; also recorded: reduces the colony numbers
colony numbers / clonogenicity ([1]; listed as Tocilizumab): significantly reduced clonogenicity
spleen weight (MDSL cells [2]): reduces spleen weight
spleen weight (MDSL cells [2]; listed as Tocilizumab): reduced the spleen weight
MDSL engraftment (hCD45+ mononuclear cells in the peripheral blood) (MDSL cells [2]; NSG mice, 60 days post transplantation, vs human IgG): significantly reduced MDSL engraftment; also recorded: markedly reduced the engraftment
p-STAT3 (p-STAT3): significant reduction
colony expansion or composition / colony numbers [3]: no effects on the colony numbers
colony expansion or composition / colony numbers ([3]; listed as Tocilizumab): did not affect colony expansion or composition
cell death (MDSL cells [4]): partial induction of cell death; also recorded: partially induces cell death
cell proliferation (relative cell number, CCK-8) (MDSL cells [5]): decreased cell proliferation; also recorded: reduces cell proliferation

B1: siltuximab (antibody, chains of the INN, looked up, V domains shown)
VH: EVQLVESGGKLLKPGGSLKLSCAASGFTFSSFAMSWFRQSPEKRLEWVAEISSGGSYTYYPDTVTGRFTISRDNAKNTLYLEMSSLRSEDTAMYYCARGLWGYYALDYWGQGTSVTVSS
VL: QIVLIQSPAIMSASPGEKVTMTCSASSSVSYMYWYQQKPGSSPRLLIYDTSNLASGVPVRFSGSGSGTSYSLTISRMEAEDAATYYCQQWSGYPYTFGGGTKLEIK
RBC transfusions [6]: no reduction in RBC transfusions
